Data from patent US20260199485A1, “RNA DEGRADERS AND USES THEREOF” (Arrakis Therapeutics, Inc., priority 2022, published 2026).

Legend:
CNOT7 [1] = target: T1, CNOT7 (Homo sapiens, UniProt Q9UIV1); assay: Binding of compounds to CNOT7 by surface plasmon resonance (SPR)
T1 construct: biotin (biotinylated); purchased Ichor Life Sciences
Procedure, shortened: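 Biotinylated CNOT7 captured on a streptavidin chip (~7,500 RU); compounds injected at several concentrations (120 s association, 120 s dissociation, 30 ul/min) in 20 mM HEPES pH7.5, 100 mM KCl, 3 mM MgCl2, 1 mM TCEP, 0.05% tween-20, 2% DMSO. Reference- and solvent-corrected sensograms fit to a 1:1 steady-state affinity model.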

[2] = target: T2, CNOT7-FKBP12(F36V) fusion protein (Homo sapiens, UniProt Q9UIV1); assay: Biochemical gel assay: degradation/deadenylation of RNA substrate with immunoprecipitated CNOT7-FKBP12(F36V); set-up: key to Activity by gel: +: an activity observed as compared to DMSO control; −: no activity observed as compared to DMSO control; conditions: for interference with the ability of CNOT7 to degrade RNA: compound added to the CNOT7 and RNA mixture (FIG. 11); for Activity by gel: Table 8, degradation of RNA, compared to DMSO control
T2 construct: expressed in transfected cells; host or cells: H1299 cells; anti-HA immunoprecipitation, HA-peptide elution
Source text: Biochemical reporter systems were generated to evaluate the ability of CNOT7 binding compounds to accelerate the degradation of RNA by CNOT7. […] Generation of the target RNA was described in the previous experiment. […] The bifunctional molecules consist of Compound 1-4 and the following rSM:
which binds to the RNA sequence of AST-X, or the rSM linked to a tag that binds CNOT7-FKBPV. Specifically, the tag is compound AP1867 (CAS NO.: 195514-23-9), a known binder of FKBPV, resulting in the rSM-AP1867tag. The CNOT7-FKBPV is obtained by immunoprecipitation of cell engineered to express CNOT-FKBPV. Specifically, H1299 cells were transfected with plasmid expressing HA-tagged CNOT7-FKBP12(F36V) fusion protein. After 24 hours, cells were pelleted and lysed in the following lysis buffer: 20 mM HEPES pH 7.3, 0.2 mM EGTA, 10% glycerol, 0.1 mM DTT with cOmplete EDTA-free protease inhibitors (Millipore). After freeze-thawing, NaCl was added to a concentration of 400 mM and lysates were pelleted to clear cellular debris. Cleared lysate was adjusted to buffer conditions containing 0.1% NP-40 and 150 mM NaCl before being applied to Pierce Anti-HA magnetic beads (ThermoFisher) at 4° C. for 2-20 hours with end-over-end rotation. After washing, bound protein was competitively eluted with 2 mg/mL HA peptide (ThermoFisher) in activity assay buffer at 4° C. for 2-20 hours. It should be appreciated that this immunoprecipitation protocol will result in tagged CNOT7 that will likely have other components of the CCR4-NOT complex bound as well.
The reactions were incubated at 37° C., with specified timepoints removed from the reaction and combined with 2× formamide RNA loading buffer with 10 mM EDTA before boiling for 3 minutes to quench the reaction. Samples were run on a pre-warmed 15% TBE-Urea polyacrylamide gel at 180V for 90 minutes and then imaged using Cy2 settings on the Azure Biosystems 600 Imaging System. […] It should be noted that the CCR4-NOT complex includes proteins other than CNOT7, for instance CNOT6, that have deadenylation and/or exonuclease activity.
These findings were confirmed in the biochemical assay described above. […] In contrast, literature compounds that are active site binders, compounds A, B and C, structure depicted on the right-hand side, do interfere with the ability of CNOT7 to degrade RNA (See center panel of gel).
Heterobifunctional molecules were generated by conjugating the rSM depicted above, which binds RNA with an AST-X sequence, to AP1867 (a small molecule binder of FKBP12(F36V)), resulting in rSM-AP1867tag. In addition, I-243 was conjugated to the rSM resulting in compounds 1-329 and I-371, depicted in FIG. 17. Fluorescently labeled RNA substrates were refolded in the presence of Mg^2+ and incubated 10, 25, or 50 μM doses of heterobifunctional molecules for 30 minutes at room temperature before the enzymatic reaction was initiated with the elution fraction (containing CNOT7-FKBP12(F36V) fusion protein) from the immunoprecipitation protocol above. The reactions were incubated at 37° C., with specified timepoints removed from the reaction and combined with 2× formamide RNA loading buffer with 10 mM EDTA before boiling for 3 minutes to quench the reaction. Samples were run on a pre-warmed 15% TBE-Urea polyacrylamide gel at 180V for 120 minutes and then imaged using Cy2 settings on the Azure Biosystems 600 Imaging System (See FIGS. 18, 19A and 19B). In addition, for 1-371 and the control rSM-AP1867tag, the disappearance of the full-length substrate band was quantified using ImageJ and plotted over time (FIG. 19B).

CNOT7 [3] = target: T1, CNOT7; assay: AMP competition assay by SPR (active site vs other site of CNOT7); type: binding; conditions: combination with AMP, increasing concentrations
Protocol: In order to evaluate if the compounds bound to the active site of CNOT7, an AMP competition experiment was performed. FIG. 5 provides a schematic of a surface plasmon resonance (SPR) experiment to interrogate if a CNOT7 binding compound binds in the active site of CNOT7. Briefly, AMP, which is a known binder to the active site, was interrogated at increasing concentrations for binding to CNOT7. As a next step, a CNOT7 binding compound was interrogated at increasing concentrations for binding to CNOT7. As a final step a combination of AMP and CNOT7 binding compound was interrogated by SPR at increasing concentrations for binding to CNOT7. If the signals were additive, AMP and the CNOT7 compounds bind to independent sites on CNOT7. […] In contrast, if the signals are not additive, this would indicate that AMP and CNOT7 […] for the same site. […] As a control, literature compounds that are active site binders, compounds A, B and C, are not additive when combined with AMP.

CNOT7:CNOT1 complex = target: T3, CNOT7:CNOT1 complex (Homo sapiens, UniProt Q9UIV1); assay: CNOT7:CNOT1 recombinant assay (deadenylation gel); type: biochemical; conditions: 50 microM compound, 50 nM CNOT7:CNOT1
T3 construct: purchased Helix Biosciences; host or cells: E. coli
Protocol: Recombinant CNOT7:CNOT1 (MIF4G domain: aa 1093-1317) complex was produced in E. coli including an 8×His affinity tag, which was cleaved prior to use. The resulting untagged complex was purified to high purity (Helix Biosciences). For this biochemical assay, deadenylation reactions are carried out by refolding 2 microM fluorescently labeled RNA substrate (5′ 6-FAM-[…] AAAAAA (SEQ ID NO:1)) in the presence of 100 mM KCl and 3 mM MgCl2 at 37 C for 30 minutes and then pre-incubating the RNA with 500 microM compound (inhibitor, heterobifunctional, or the CNOT7 binding moiety of the heterobifunctional) at room temperature for 30 minutes (in the presence of 0.05% Tween-20) before initiating the deadenylation reaction with the addition of recombinant CNOT7:CNOT1 complex. In the reactions, the final concentration of RNA was […], the final concentration of the compounds was 50 microM, and the final concentration of CNOT7:CNOT1 was 50 nM. Glycerol and BSA were included in the reactions to aid in protein stability and activity (final concentrations of 5% and 0.15 mg/mL, respectively). Timepoints were removed from the reaction and quenched by adding formamide loading dye including 10 mM EDTA. Samples were run on 15% TBE-Urea gels at 180V for 2-2.5 hours to resolve substrate and product bands and imaged using an Azure imager with FAM detection settings. Bands were quantified using ImageJ and % full length substrate over time was calculated by [Intensity of substrate band]/[Total intensity of full lane of gel].

CNOT7 [4] = target: T1, CNOT7; assay: CNOT7 inhibition assay (recombinant Avi-tagged CNOT7, deadenylation gel); type: biochemical; conditions: 50 μM compound, 100 nM recombinant Avi-tagged CNOT7, 200 nM RNA
Protocol: Recombinant CNOT7 (with a C-terminal Avi tag) was produced in E. coli and purified to high purity. For this biochemical assay, deadenylation reactions are carried out by refolding 2 microM fluorescently labeled RNA substrate (5′ 6-FAM-[…] AAAAAA (SEQ ID NO:1) in the presence of 100 mM KCl and 3 mM MgCl2 at 37 C for 30 minutes and then pre-incubating the RNA with 500 microM compound (inhibitor, heterobifunctional, or the CNOT7 binding moiety of the heterobifunctional) at room temperature for 30 minutes (in the presence of 0.05% Tween-20) before initiating the deadenylation reaction with the addition of the recombinant CNOT7 (with Avi-tag). In the reactions, the final concentration of RNA was 200 nM, the final concentration of the compounds was 50 μM, and the final concentration of CNOT7 was 100 nM. Glycerol and BSA were included in the reactions to aid in protein stability and activity (final concentrations of 5% and 0.15 mg/mL, respectively). Timepoints were removed from the reaction and quenched by adding formamide loading dye including 10 mM EDTA. Samples were run on 15% TBE-Urea gels at 180V for 2-2.5 hours and imaged using an Azure imager with FAM detection settings. Bands were quantified using ImageJ and % full length substrate over time was normalized to band intensity at time zero.
This was to be expected as the CNOT7 binding moieties are not expected to bind in the active site or interfere with the ability of CNOT7 to deadenylate RNA. […] We speculate that the inhibition is caused by specific interaction of the heterobifunctional compounds with the recombinant Avi-tagged CNOT7.

[5] = Table 4, dissociation constant for CNOT7
[6] = Table 5, dissociation constant for CNOT7 by SPR
[7] = dissociation constant by SPR, Table 7

T2 sequence (Q9UIV1 with tags, fused parts or gaps): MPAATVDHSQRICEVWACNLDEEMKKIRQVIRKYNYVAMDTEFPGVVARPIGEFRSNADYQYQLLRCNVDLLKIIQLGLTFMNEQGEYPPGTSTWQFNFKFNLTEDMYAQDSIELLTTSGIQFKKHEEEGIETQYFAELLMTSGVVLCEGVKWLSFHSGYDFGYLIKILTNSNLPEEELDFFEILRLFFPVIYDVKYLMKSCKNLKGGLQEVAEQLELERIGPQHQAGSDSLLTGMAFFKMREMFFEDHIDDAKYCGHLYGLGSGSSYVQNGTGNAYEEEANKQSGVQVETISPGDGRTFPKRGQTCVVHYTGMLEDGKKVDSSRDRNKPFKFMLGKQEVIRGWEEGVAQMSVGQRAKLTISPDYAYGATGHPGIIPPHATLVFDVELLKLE
T3 sequence (Q9UIV1 whole entry): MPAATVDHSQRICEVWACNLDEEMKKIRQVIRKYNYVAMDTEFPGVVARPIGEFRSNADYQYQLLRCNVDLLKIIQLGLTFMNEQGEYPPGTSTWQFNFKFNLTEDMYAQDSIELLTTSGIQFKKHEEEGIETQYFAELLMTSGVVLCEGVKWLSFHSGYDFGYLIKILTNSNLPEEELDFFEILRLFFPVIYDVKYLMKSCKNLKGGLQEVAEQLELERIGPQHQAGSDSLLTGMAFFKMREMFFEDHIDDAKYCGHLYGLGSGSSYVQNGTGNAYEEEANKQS
T3 sequence (A5YKK6 1093-1317 partner limits assumed): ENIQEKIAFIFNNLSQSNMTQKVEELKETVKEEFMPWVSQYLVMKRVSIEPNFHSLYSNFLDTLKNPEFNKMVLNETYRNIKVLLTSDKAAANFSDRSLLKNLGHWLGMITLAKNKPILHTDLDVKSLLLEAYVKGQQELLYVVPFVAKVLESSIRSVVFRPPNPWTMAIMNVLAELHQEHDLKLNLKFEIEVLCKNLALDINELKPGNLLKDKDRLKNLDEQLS
T1 sequence (Q9UIV1 whole entry): as the sequence (Q9UIV1 whole entry) above

In the case of Cc1c[nH]c(=O)nc1SCC(=O)NCc1ccc2c(c1)OCO2 [Compound I-1], the Kd (CNOT7 [1]; [5]) is reported as 1 to 25 µM, the “interference with the ability of CNOT7 to degrade RNA” value (“interference with the ability” below) [2] is reported as “did not interfere” and the “SPR signal additive to AMP (additive = binds CNOT7 at a location other than the active site)” value (“SPR signal additive to AMP” for short) (CNOT7 [3]) is reported as “additive to AMP”.

In the case of Cc1c[nH]c(=O)nc1SCC(=O)NCc1ccccc1 [Compound I-3, N-Benzyl-2-[(5-methyl-2-oxo-1H-pyrimidin-4-yl)sulfanyl]acetamide], the Kd (CNOT7 [1]; [5]) is reported as over 25 µM, the “interference with the ability” value [2] is reported as “did not interfere” and the “SPR signal additive to AMP” value (CNOT7 [3]) is reported as “additive to AMP”.

COc1ccc(CNC(=O)CSc2nc(=O)[nH]cc2C)cc1 [Compound I-4] was tested, and the Kd (CNOT7 [1]; [5]) was 1 to 25 µM, the “interference with the ability” value [2] was “did not interfere” and the “SPR signal additive to AMP” value (CNOT7 [3]) was “additive to AMP”.

In the case of COc1ccc2c(c1)CCN(C(=O)CSc1nc(=O)[nH]cc1C)C2 [Compound I-198], the Kd (CNOT7 [1]; [6]) is reported as 1 to 25 µM, the “inhibited or accelerated the deadenylation activity of the CNOT7:CNOT1 complex” value (CNOT7:CNOT1 complex) is reported as “neither” and the “inhibition of CNOT7 activity (rate of deadenylation vs DMSO control)” value (CNOT7 [4]) is reported as “did not inhibit CNOT7 activity”.

COc1ccc(C(C)NC(=O)CSc2nc(=O)[nH]cc2C)c(F)c1 (centres unmarked) [Compound I-243] was tested, and the Kd (CNOT7 [1]; [6]) was 0.1 to 1 µM, the “inhibited or accelerated the deadenylation activity of the CNOT7:CNOT1 complex” value (CNOT7:CNOT1 complex) was “neither” and the “inhibition of CNOT7 activity (rate of deadenylation vs DMSO control)” value (CNOT7 [4]) was “slightly inhibited CNOT7 activity”.

In the case of COc1ccc([C@@H](C)NC(=O)CSc2nc(=O)[nH]cc2Cl)c(F)c1 [Compound I-330], the Kd (CNOT7 [1]; Table 6, dissociation constant for CNOT7 by SPR) is reported as 0.1 to 1 µM, the Kd (CNOT7 [1]; [7]) is reported as 1 to 25 µM and the “inhibited or accelerated the deadenylation activity of the CNOT7:CNOT1 complex” value (CNOT7:CNOT1 complex) is reported as “neither”. For the same molecule, the “inhibition of CNOT7 activity (rate of deadenylation vs DMSO control)” value (CNOT7 [4]) was “slightly inhibited CNOT7 activity”.

For COc1ccc([C@@H](C)NC(=O)[C@@H](CCOCCOCCOCCn2cc(COCCOCCOCCOCCOc3ccc(NC(=O)Nc4nc(CC(=O)N5CCN(C)CC5)cs4)cc3)nn2)Sc2nc(=O)[nH]cc2Cl)c(F)c1 [Compound I-397], the Kd (CNOT7 [1]; [7]) was 1 to 25 µM, the Activity by gel [2] was “+” and the “inhibition of CNOT7 activity (rate of deadenylation vs DMSO control)” value (CNOT7 [4]) was “inhibit some of the CNOT7 activity”.

With COc1ccc2c(c1)C[C@H](COCCOCCOCCOCCn1cc(COCCOCCOc3ccc(NC(=O)Nc4nc(CC(=O)N5CCN(C)CC5)cs4)cc3)nn1)C(C(=O)CSc1nc(=O)[nH]cc1C)C2 (some centres unmarked) [Compound I-496] the Kd (CNOT7 [1]; [7]) was over 25 µM, the Activity by gel [2] was “+” and the “inhibited or accelerated the deadenylation activity of the CNOT7:CNOT1 complex” value (CNOT7:CNOT1 complex) was “neither”. For the same molecule, the “inhibition of CNOT7 activity (rate of deadenylation vs DMSO control)” value (CNOT7 [4]) was “inhibit some of the CNOT7 activity”.
